61 molecules from a melting point compilation (Tetko et al.; mined from patent text by program, amines drawn as free bases though some values may be those of a salt) can be followed below.

What is called melting point is the temperature, or range, at which the solid turns liquid.

`Oc1ccc2c(c1)COc1c-2cc2ccc(O)cc2c1-c1cccc(Cl)c1` registered a melting point of 243 to 246 °C.
Next, `CCCCCCCCCOC(=O)Oc1ccc(-c2ccc(C#N)cc2)cc1`: 53 to 53.1 °C; `CC(=O)CCCCCCCC(=O)c1ccc(OCc2ccccc2)c(OCc2ccccc2)c1`: 72 to 74 °C; `O=C1COc2cc(SCc3ccccc3)ccc2N1`: 153 to 154 °C.
Next, `CCC1(O)C(C)=CC(=O)N1c1ccccc1` (stereo unspecified): 97 to 100 °C; `COc1ccc2[nH]nc(N3CCNCC3)c2c1`: 163 to 169 °C; `O=C(O)c1cc2cc([N+](=O)[O-])cc(O)c2o1`: 294 °C.
As for `CCOC(=O)CC(=O)CC(O)/C=C/c1c(-c2ccccc2)ccnc1C` (stereo unspecified), the melting point is 83 to 84 °C.
Molecule `CC(C)N=C(NC#N)Nc1cc(Cl)cc(Cl)c1` showed a melting point of 156 to 158 °C.
The figure for `Nc1cccc(-c2cccc(CC3CCCC3NCCc3ccccc3)c2)n1` (stereo unspecified) is 110 to 130 °C.
`CCC(C(=O)c1ccc(O)cc1)c1ccccc1` (stereo unspecified) gave a melting point of 127 to 129 °C.
The figure for `CCc1c(CCNC(=O)CCCCC(=O)O)ccc(OC)c1OC` is 92 to 94 °C; for `CCN1C(=O)CCCc2c1ccc(Nc1ncc(Cl)c(Nc3ccccc3S(=O)(=O)N(C)C)n1)c2OC` it is 183 °C; for `OC/C(=C/c1ccccc1)c1cccs1` it is 64 to 65 °C.
Molecule `COC(=O)[C@H](Cc1ccc(OC(C)=O)c(OC(C)=O)c1)NC(=O)CNC(=O)OCc1ccccc1` registered a melting point of 130 to 131 °C.
As for `CCCCCCCCCC(=O)Nc1cc(NC(=O)CCCCCCCCC)cc(N(CC(=O)OCc2ccccc2)CC(=O)OCc2ccccc2)c1`, the melting point fell in the range of 127 to 129 °C.
In turn, `CCOCc1nc2c(N)nc3ccccc3c2n1CCOCCCS(=O)(=O)N(C)C` had a melting point of 61 to 64 °C.
The figure for `CC1(C)OC(=O)C(Oc2ccc3sccc3c2)=C1c1ccc(S(C)(=O)=O)cc1` is 150 to 152 °C; for `O=c1cc(-c2ccncn2)nc2n1CCC1(CCNC1)N2` (stereo unspecified) it is 226 to 228 °C; for `CC(=O)OC1CSC(Oc2ccccc2-c2ccno2)C(OC(C)=O)C1OC(C)=O` (stereo unspecified) it is 75 °C.
Next, `Cc1c(C(F)(F)F)ncn1-c1ncc(C(F)(F)F)cc1Cl`: 59.4 °C.
On to `CC1=C(C(=O)Nc2cnc3c(C)cc(C)cc3c2-c2ccccc2Cl)Sc2ccccc2N1`, for which the melting point lay in the range of 177 to 178 °C.
`Cc1cc(-c2c3ccccc3c(C)c3sc4ccccc4c23)cc(C)c1OCC(=O)O` gave a melting point of 155 to 181 °C.
Next, `CC(=O)Oc1cc(Cl)ccc1C1(OC(C)=O)C(=O)c2ccccc2C1=O`: 148 to 150 °C.
Next, `CCSc1nc2c(C)ccnc2n1Cc1ccc(C2(Br)CC(C#N)=CN2C)cc1` (stereo unspecified): 161 to 163 °C; `CCCCc1nc(Cl)c(CO)n1Cc1ccc(NC(=O)C(NC(=O)OC(C)(C)C)C(=O)O)cc1` (racemic): 144 to 147 °C; `CC(C)(C)c1ccc(C(=O)CCCN2CCC(C(=O)c3nc4ccccc4n3Cc3ccc(F)cc3)CC2)cc1`: 105 to 106 °C.
For the molecule `N#Cc1cnc2c(sc3ccc([N+](=O)[O-])cc32)c1Nc1cccc(Br)c1`, the melting point was > 300 °C.
Next, `CS(=O)(=O)CCC(=O)NCc1ccc(/C=C/C(c2cc(Cl)c(Cl)c(Cl)c2)C(F)(F)F)cc1Cl` (stereo unspecified): 101 to 104 °C; `CCCCCCCCCCCCCCOc1ccc(CC(=O)Nc2ccc(-n3ccnc3C)cc2)cc1`: 106 to 109 °C; `CCOC1Nc2c(Br)cc(Br)cc2S(=O)(=O)N1` (stereo unspecified): 96 to 98 °C.
Molecule `CS(=O)(=O)N(Cc1cccnc1)c1cccc(C(F)(F)F)c1` came in with a melting point of 106 to 110 °C.
As for `CN(O)C(=O)C(=Cc1ccc2ccccc2c1)c1ccc(F)cc1`, the melting point was 132 to 134 °C.
The molecule `CCn1cc(C(=O)NCc2ccc(Cl)cc2)c(=O)c2cc(C#CCCO)sc21` came in with a melting point of 158 to 162 °C.
Next, `CCCc1c(OCCCOc2cccc3c2CCCC3)ccc2c1OC(CCC(=O)O)(CCC(=O)OCC)CC2=O` (stereo unspecified): 83.5 to 84.5 °C; `CC(C)=NNc1cc2c(nn1)CCN(C(=O)C1CCC1)C2`: 175 to 178 °C.
Next, `CS(=O)(=O)c1ccc(-c2cnn(Cc3ccccc3)c(=O)c2-c2ccc3c(c2)COC3=O)cc1`: > 250 °C; `Oc1ccc(SCCCN2CCOCC2)c(O)c1`: 99 °C.
The figure for `FC(F)(F)c1ccc2c(c1)NC(=S)c1ccccc1S2` is 232 to 233 °C.
Turning to `N#Cc1c(N)nc2ccccc2c1NCc1cccs1`, the melting point amounted to 208 °C.
In turn, `CCOC(=O)CC[C@H](NC(=O)CCc1cc(Cl)ccc1C(=O)CCCNC(C)=O)C(=O)OCC` returned a melting point of 109 to 111 °C.
Next, `CC(=O)OC12Oc3cc(C)ccc3C1(OC(C)=O)C(=O)c1ccccc12` (stereo unspecified): 167 to 169 °C; `COc1ccc(C2=NN(c3ccc(O)cc3)C(=O)C(C)(C)C2)cc1OC`: 176 to 178 °C.
In turn, `O=C(O)CCCCCCCn1nc(-c2ccccc2)c(-c2ccccc2)nc1=O` returned a melting point of 111 to 113 °C.
As for `O=C(Cc1ccccc1)N1CCN(Cc2n[nH]c3cc(F)ccc23)CC1`, the melting point lay in the range of 173 to 174 °C.
Next, `Nc1ccc2nc(-c3ccccc3)nn2c1`: 201 °C; `CONC(=O)c1cccc(-c2nc3ccccc3c(=O)o2)c1`: 223 to 226 °C; `O=C1c2ccccc2C(=O)N1Nc1ccc(Br)cc1`: 205 to 206 °C.
Next, `c1c(NC23CC4CC(CC(C4)C2)C3)nc(N2CCCC2)nc1N1CCNCC1`: 152 to 156 °C; `Cc1c(F)c(N2CC[C@@H](C(C)(C)N)C2)cc2c1c(=O)c(C(=O)O)cn2-c1ccc(F)cc1F`: 156 to 158 °C.
The figure for `O=C(O)CCc1oc(-n2cncn2)nc1-c1ccc(Cl)cc1` is 168 to 169 °C; for `COCCOc1cccc(-c2cncc(C#N)c2Nc2ccc3[nH]ccc3c2C)c1` it is 158 to 160 °C; for `OCC(CO)Oc1cc(-c2ccccc2)on1` it is 117 to 119 °C.
Regarding `CCCCCCCCCCCCCCCCCCOc1ccc(S(=O)(=O)Nc2ccccc2Cl)cc1NC(=O)CC(=O)N1CCc2ccccc21`, the melting point fell in the range of 124 to 128 °C.
In turn, `COc1ccc(C[C@@H](CO)NC(=O)c2ccnc(-n3nc(-c4cccnc4)c4ccccc4c3=O)c2)cc1OC` had a melting point of 135 to 137 °C.
The figure for `C[C@@H](O[Si](C)(C)C(C)(C)C)[C@H]1C(=O)N([Si](C)(C)C(C)(C)C)[C@@H]1CC=O` is 115 to 116 °C.
The figure for `CCOC(=O)c1nc2scc(CNC(=O)c3ccccc3)c2c(=O)[nH]1` is 204 °C.
The figure for `CCOC(=O)C1CC1c1cc(=O)c2cc(-c3ccccc3)ccc2o1` (stereo unspecified) is 134 to 141 °C; for `Cc1c(C)c2c(c3c1NCC3)CC(C)(CI)O2` (stereo unspecified) it is 97 to 98 °C.
`Cc1cc(CSc2cccc(OCc3cccc4ccccc34)c2)oc(=O)c1` came in with a melting point of 139 °C.
The figure for `COC(=O)c1ccc(-c2c(C(=O)N(C)Cc3cc(C(F)(F)F)cc(C(F)(F)F)c3)n(C)c(=O)c3ncccc23)cc1` is 123 to 125 °C.
